In publication PMC11257039, “VCP activator reverses nuclear proteostasis defects and enhances TDP-43 aggregate clearance in multisystem proteinopathy models” (The Journal of Clinical Investigation, 2024):
Several values for one entry are separate records, joined by “and”; a condition that tells them apart may be missing. Equal entries are not always repeated. Entries after “also recorded” stand apart in the source; their conditions may differ.

How the values were obtained:
recombinant WT VCP [1] = biological target: T1, recombinant WT VCP (Mus musculus, UniProt Q01853); experiment: Kinase-Glo ATPase assay, recombinant WT VCP; type: biochemical; conditions: for ATP consumed: WT VCP no UN
T1 construct: in the full-length recombinant VCP; His (N); made in house; host or cells: Escherichia coli BL21-CodonPlus (DE3)-RIL
Description: (§1) Experiments with varied activator concentration and screening were measured using the Kinase-Glo Luminescent Kinase Assay (Promega). Reactions were incubated at 25°C for 1 hour then reduced to 4°C in a thermocycler consisting of 50 nM of recombinant VCP with or without 50 nM UFD1/NPLOC4 in 50 uL ATPase buffer (25 mM HEPES, pH 7.5, 100 mM NaCl, 10 mM MgCl2) at 2% DMSO with 62.5 μM ATP and a range of activator concentrations (Gibco, Sigma-Aldrich). Equal volumes of reaction and Kinase-Glo reagent were incubated for 20 minutes at room temperature in a 96 well white flat bottom plate (Corning). Luminescence was measured in a microplate reader (Spark 20M, Tecan).
(§2) Experiments with varied compound concentration were fit to a 3-parameter dose curve with asymmetric profile likelihood 95% confidence intervals in GraphPad Prism 9 (GraphPad). Experiments with varied ATP concentration were fit to a Michaelis-Menten model with asymmetric profile likelihood 95% confidence intervals. Significance was determined for experiments with fixed compound or fixed ATP concentration using a linear mixed-effects model.

WT VCP + Ufd1/Nploc4 = biological target: T2, WT VCP + Ufd1/Nploc4 (Mus musculus, UniProt Q01853); experiment: Kinase-Glo ATPase assay, WT VCP with UFD1/NPLOC4 (UN); type: biochemical; conditions: for ATP consumed: WT VCP with UN
T2 construct: in the full-length recombinant VCP; His (N); made in house; host or cells: E. coli (VCP: BL21-CodonPlus (DE3)-RIL; UFD1 and NPLOC4: E. coli (DE3), purified by the MD Anderson core)
Description: as §1, §2

recombinant WT VCP [2] = biological target: T1, recombinant WT VCP; experiment: MESG-PNP (EnzCheck) phosphate release ATPase assay, WT VCP; type: biochemical; conditions: for ATPase activity v0/ET: 25 μM compound, replicate experiments
Description: (§3) All other experiments were performed using the EnzCheck phosphatase assay kit (Molecular Probes). ATPase activity was measured in a 96-well flat bottom plate (Thermo Fisher Scientific). 50 nM VCP was incubated in 100 μL ATPase buffer with 2% DMSO with 25 μM compound and various ATP concentrations. The absorbance at 360 ± 5 nm was measured for more than 15 minutes at 25°C. Phosphate release was quantified based on a phosphate standard curve performed on the same plate. Initial enzyme velocity was determined by fitting the linear portion of the data to a linear regression model.
as §2

26S proteasome = 26S proteasome activity, Suc-LLVY-AMC fluorescence; type: biochemical, human; conditions: 25 μM compound, versus 1% DMSO
Description: 26S proteasome and substrate suc-LLVY-AMC were purchased (LifeSensors, Inc.). Fluorescence was measured in a microplate reader using a 96-well optical bottom black plate (Thermo Fisher Scientific). […] 26S proteasome was incubated in 100 μL proteasome buffer (20 mM HEPES, pH 7.5, 0.5 mM EDTA, 0.05% Triton-X) with 100 μM suc-LLVY-AMC, 1 mM ATP, and 25 μM compound or 1% DMSO. Fluorescence was measured at excitation 380 ± 10nm and emission 460 ± 10nm for more than 15 minutes at 37°C. Initial velocity was determined by fitting the linear portion of the data to a linear regression model. Significance was determined for using a linear mixed-effects model.

[3] = test system: WT HeLa cells expressing GFP-TDP-4FL; experiment: Flow cytometry of GFP-TDP-4FL integrated fluorescence, WT HeLa; type: cell-based; conditions: for Integrated Fluorescence WT (Normalized to CHX): replicate values
Description: Drug treatments were performed on neurons 7 days after lentiviral transduction and 14 days after neuronal induction. HeLa cells were collected using trypsin and pelleted at 1000g for 3 minutes. Cell pellets were resuspended in colorless DMEM (Invitrogen) supplemented with 2% FBS and filtered through a BD tube with cell strainer (BD Biosciences) for flow cytometry analysis on LSR II (BD Biosciences). Data analysis was performed on FlowJo v10 software. Integrated fluorescence intensity was determined by multiplying percent positive GFP and GFP median fluorescence values.

luciferase = experiment: Luciferase counter assay: Kinase-Glo with 62.5 μM ATP without recombinant VCP; type: biochemical; conditions: for measured ATP consumed (nmol) without VCP: replicate values
Description: as §1
(A-D) Measured ATP as determined by a Kinase-Glo assay of 62.5μM ATP in the presence of increasing concentrations of compound without recombinant VCP present. (for all panels: n=3 with 4 technical replicates per experiment, points are expressed as beta ± SE, linear mixed effects model, P>0.05 for each […]
(1 picture or pasted object on this page, not shown here)

A232E VCP = biological target: T3, A232E VCP (Mus musculus, UniProt Q01853, A232E); experiment: MESG-PNP ATPase assay, recombinant A232E VCP; type: biochemical; conditions: VCP Mutation A232E; replicate values
T3 construct: in the full-length recombinant VCP; His (N); made in house; host or cells: Escherichia coli BL21-CodonPlus (DE3)-RIL
Description: as §3
(§4) Figure S8. VCP activators variable effect on ATPase activity of MSP associated mutations in recombinant VCP. ATPase activity of 50 nM recombinant VCP protein was measured using an MESG-PNP assay upon treatment with 25 μM compound versus 2% DMSO control at 1mM ATP for WT (also shown in Fig. 5c), A232E, R155H, and R159H (n=3 with 3 technical replicated per experiment; points are expressed as beta ± SE, linear effects model: *P<0.05,**P<0.01; ***P<0.001; ****P<0.0001).

R155H VCP = biological target: T4, R155H VCP (Mus musculus, UniProt Q01853, R155H); experiment: MESG-PNP ATPase assay, recombinant R155H VCP; type: biochemical; conditions: VCP Mutation R155H; replicate values
T4 construct: in the full-length recombinant VCP; His (N); made in house; host or cells: Escherichia coli BL21-CodonPlus (DE3)-RIL
Description: as §3, §4

R159H VCP = biological target: T5, R159H VCP (Mus musculus, UniProt Q01853, R159H); experiment: MESG-PNP ATPase assay, recombinant R159H VCP; type: biochemical; conditions: VCP Mutation R159H; replicate values
T5 construct: in the full-length recombinant VCP; His (N); made in house; host or cells: Escherichia coli BL21-CodonPlus (DE3)-RIL
Description: as §3, §4

T5 sequence (Q01853 whole entry R159H): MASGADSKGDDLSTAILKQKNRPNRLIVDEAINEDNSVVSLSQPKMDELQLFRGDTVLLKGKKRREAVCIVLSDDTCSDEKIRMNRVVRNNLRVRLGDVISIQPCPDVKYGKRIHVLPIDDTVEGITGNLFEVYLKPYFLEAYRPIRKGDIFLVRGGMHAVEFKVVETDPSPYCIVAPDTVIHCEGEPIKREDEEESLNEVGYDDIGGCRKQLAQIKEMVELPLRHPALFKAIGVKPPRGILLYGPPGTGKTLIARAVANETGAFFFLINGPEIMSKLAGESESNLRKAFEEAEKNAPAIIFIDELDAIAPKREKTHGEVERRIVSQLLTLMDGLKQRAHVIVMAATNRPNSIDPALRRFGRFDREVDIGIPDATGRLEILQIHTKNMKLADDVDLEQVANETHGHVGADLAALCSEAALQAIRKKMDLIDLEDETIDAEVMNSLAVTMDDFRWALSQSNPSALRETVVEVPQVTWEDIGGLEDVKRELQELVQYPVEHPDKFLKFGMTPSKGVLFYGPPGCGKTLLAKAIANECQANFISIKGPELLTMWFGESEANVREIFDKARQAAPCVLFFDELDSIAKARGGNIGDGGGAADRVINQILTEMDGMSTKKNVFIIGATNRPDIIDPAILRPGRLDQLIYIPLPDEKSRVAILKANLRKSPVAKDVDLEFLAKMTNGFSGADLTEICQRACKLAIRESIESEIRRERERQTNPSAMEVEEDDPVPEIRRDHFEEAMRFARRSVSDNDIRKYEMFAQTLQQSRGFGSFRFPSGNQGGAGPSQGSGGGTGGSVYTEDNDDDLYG
T3 sequence (Q01853 whole entry A232E): as the sequence (Q01853 whole entry R159H) above, with H159R, A232E counted along it
T4 sequence (Q01853 whole entry R155H): as the sequence (Q01853 whole entry R159H) above, with R155H, H159R counted along it
T1 sequence (Q01853 whole entry): as the sequence (Q01853 whole entry R159H) above, with H159R counted along it
T2 sequence (Q01853 whole entry): as the sequence (Q01853 whole entry R159H) above, with H159R counted along it
T2 sequence (Q92890 whole entry partner): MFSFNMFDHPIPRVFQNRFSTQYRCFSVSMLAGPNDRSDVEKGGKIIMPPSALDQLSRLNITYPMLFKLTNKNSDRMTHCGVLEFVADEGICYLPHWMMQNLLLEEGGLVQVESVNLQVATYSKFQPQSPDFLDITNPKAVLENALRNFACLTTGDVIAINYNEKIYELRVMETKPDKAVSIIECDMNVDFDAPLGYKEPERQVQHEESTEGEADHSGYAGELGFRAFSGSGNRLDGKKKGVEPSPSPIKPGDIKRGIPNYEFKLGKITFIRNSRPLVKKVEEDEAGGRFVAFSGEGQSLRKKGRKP
T2 sequence (Q8TAT6 whole entry partner): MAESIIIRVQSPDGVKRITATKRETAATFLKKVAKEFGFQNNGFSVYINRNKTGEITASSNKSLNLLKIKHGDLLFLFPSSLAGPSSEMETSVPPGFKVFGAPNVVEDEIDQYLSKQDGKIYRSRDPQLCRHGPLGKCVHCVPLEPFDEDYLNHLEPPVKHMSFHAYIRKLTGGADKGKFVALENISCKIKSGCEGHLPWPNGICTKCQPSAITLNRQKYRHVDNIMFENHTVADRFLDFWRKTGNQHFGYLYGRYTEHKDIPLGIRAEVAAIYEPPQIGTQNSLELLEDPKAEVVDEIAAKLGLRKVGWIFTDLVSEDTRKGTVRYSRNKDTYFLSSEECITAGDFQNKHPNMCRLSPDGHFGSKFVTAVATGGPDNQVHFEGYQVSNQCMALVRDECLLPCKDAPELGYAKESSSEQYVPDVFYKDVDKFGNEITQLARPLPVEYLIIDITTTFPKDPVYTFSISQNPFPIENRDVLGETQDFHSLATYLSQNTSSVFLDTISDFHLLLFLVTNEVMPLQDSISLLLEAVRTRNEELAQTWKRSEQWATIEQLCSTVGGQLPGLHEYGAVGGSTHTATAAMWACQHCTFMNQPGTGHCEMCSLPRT

## O=C(OCCN(C1=NS(=O)(=O)c2ccccc21)c1ccc(Cl)cc1)c1ccco1 [UP163]
Recombinant WT VCP [1]; EC50 (μM) (95% CI), WT VCP without UN, 50 nM VCP, 62.5 μM ATP, 2% DMSO
  EC50: 9 µM
Recombinant WT VCP [1]; 1.56 μM compound
  ATP consumed: 0.996 nmol and 1.192 nmol and 1.605 nmol
Recombinant WT VCP [1]; 3.13 μM compound
  ATP consumed: 0.935 nmol and 1.312 nmol and 1.332 nmol
Recombinant WT VCP [1]; 6.25 μM compound
  ATP consumed: 1.040 nmol and 1.494 nmol and 1.616 nmol
Recombinant WT VCP [1]; 12.5 μM compound
  ATP consumed: 1.105 nmol and 1.570 nmol and 1.588 nmol
Recombinant WT VCP [1]; 25 μM compound
  ATP consumed: 1.206 nmol and 1.717 nmol and 1.792 nmol
Recombinant WT VCP [1]; 50 μM compound
  ATP consumed: 1.416 nmol and 2.232 nmol and 2.160 nmol
Recombinant WT VCP [1]; 100 μM compound
  ATP consumed: 1.546 nmol and 2.072 nmol and 2.521 nmol
Recombinant WT VCP [1]; 200 μM compound
  ATP consumed: 1.557 nmol and 2.138 nmol and 2.227 nmol
Recombinant WT VCP [1]; in vitro validation of 106 screen hits
  recombinant WT VCP ATPase activity: significantly increased
Recombinant WT VCP [1]; maximum, WT VCP without UN
  increase of VCP activity: 104%
WT VCP + Ufd1/Nploc4
  change in EC50 with UN compared to without UN: no change in EC50
  change in maximum percent activity with UN compared to without UN: significantly decreased
WT VCP + Ufd1/Nploc4; WT VCP + Ufd1/Nploc4, 1:1 molar ratio
  EC50: 8.9 µM
WT VCP + Ufd1/Nploc4; 1.56 μM compound
  ATP consumed: 1.198 nmol and 1.183 nmol and 1.402 nmol
WT VCP + Ufd1/Nploc4; 3.13 μM compound
  ATP consumed: 1.366 nmol and 1.295 nmol and 1.519 nmol
WT VCP + Ufd1/Nploc4; 6.25 μM compound
  ATP consumed: 1.504 nmol and 1.416 nmol and 1.656 nmol
WT VCP + Ufd1/Nploc4; 12.5 μM compound
  ATP consumed: 1.666 nmol and 1.564 nmol and 1.799 nmol
WT VCP + Ufd1/Nploc4; 25 μM compound
  ATP consumed: 1.783 nmol and 1.641 nmol and 1.890 nmol
WT VCP + Ufd1/Nploc4; 50 μM compound
  ATP consumed: 1.844 nmol and 1.710 nmol and 1.941 nmol
WT VCP + Ufd1/Nploc4; 100 μM compound
  ATP consumed: 1.839 nmol and 1.775 nmol and 1.995 nmol
WT VCP + Ufd1/Nploc4; 200 μM compound
  ATP consumed: 1.798 nmol and 1.691 nmol and 2.001 nmol
Recombinant WT VCP [2]; 25 μM activator
  kcat (nmol Pi / nmol VCP / s) (95% CI): 0.366 (0.335, 0.401) nmol Pi / nmol VCP / s
Recombinant WT VCP [2]; 25 μM activator, versus DMSO
  increase in kcat: more than 50%
Recombinant WT VCP [2]; [ATP] 62.5 μM
  ATPase activity v0/ET: 0.201 nmol Pi / nmol VCP / s and 0.212 nmol Pi / nmol VCP / s and 0.198 nmol Pi / nmol VCP / s
Recombinant WT VCP [2]; [ATP] 125 μM
  ATPase activity v0/ET: 0.260 nmol Pi / nmol VCP / s and 0.250 nmol Pi / nmol VCP / s and 0.255 nmol Pi / nmol VCP / s
Recombinant WT VCP [2]; [ATP] 250 μM
  ATPase activity v0/ET: 0.300 nmol Pi / nmol VCP / s and 0.288 nmol Pi / nmol VCP / s and 0.278 nmol Pi / nmol VCP / s
Recombinant WT VCP [2]; [ATP] 500 μM
  ATPase activity v0/ET: 0.335 nmol Pi / nmol VCP / s and 0.312 nmol Pi / nmol VCP / s and 0.331 nmol Pi / nmol VCP / s
Recombinant WT VCP [2]; [ATP] 1000 μM
  ATPase activity v0/ET: 0.366 nmol Pi / nmol VCP / s and 0.351 nmol Pi / nmol VCP / s and 0.360 nmol Pi / nmol VCP / s
26S proteasome
  % activity of 26S proteasome: 101.6% and 88.7% and 86.5% and 112.7% and 93.3% and 91.5%
[3]; 5μM compound with CHX
  Integrated Fluorescence WT (Normalized to CHX): 1.026 and 0.947 and 1.013 and 0.859 and 0.810
[3]; 20μM compound with CHX
  Integrated Fluorescence WT (Normalized to CHX): 0.921 and 1.001 and 0.939 and 1.006 and 0.777 and 0.710
[3]; MG132, then CHX with 5 or 20 μM activator
  clearance of GFP-TDP-4FL aggregates (integrated fluorescence): enhances clearance of TDP-4FL inclusions; also recorded: slightly enhanced clearance
luciferase; 62.5 μM ATP, increasing concentrations of compound
  luciferase activity (measured ATP without VCP): did not inhibit luciferase activity
luciferase; compound 6.25 μM
  measured ATP consumed (nmol) without VCP: 3.139 nmol and 3.185 nmol and 3.132 nmol and 3.341 nmol and 3.220 nmol and 3.273 nmol and 3.147 nmol and 3.064 nmol and 3.275 nmol and 3.208 nmol and 3.040 nmol and 3.045 nmol
luciferase; compound 12.5 μM
  measured ATP consumed (nmol) without VCP: 3.118 nmol and 3.105 nmol and 3.142 nmol and 3.139 nmol and 3.279 nmol and 3.429 nmol and 3.221 nmol and 3.237 nmol and 3.278 nmol and 3.379 nmol and 3.331 nmol and 3.029 nmol
luciferase; compound 25 μM
  measured ATP consumed (nmol) without VCP: 3.141 nmol and 3.208 nmol and 3.280 nmol and 3.310 nmol and 3.135 nmol and 3.015 nmol and 3.257 nmol and 3.266 nmol and 3.329 nmol and 3.083 nmol and 3.153 nmol
luciferase; compound 50 μM
  measured ATP consumed (nmol) without VCP: 3.191 nmol and 3.073 nmol and 3.250 nmol and 3.386 nmol and 3.272 nmol and 3.113 nmol and 3.202 nmol and 3.171 nmol and 3.209 nmol and 3.373 nmol and 3.530 nmol and 3.028 nmol
luciferase; compound 100 μM
  measured ATP consumed (nmol) without VCP: 3.232 nmol and 3.235 nmol and 3.017 nmol and 3.209 nmol and 3.245 nmol and 3.024 nmol and 3.264 nmol and 3.329 nmol and 3.427 nmol and 3.000 nmol and 3.076 nmol
luciferase; compound 200 μM
  measured ATP consumed (nmol) without VCP: 3.190 nmol (2×) and 3.291 nmol and 3.314 nmol and 3.330 nmol and 3.165 nmol and 3.125 nmol and 3.456 nmol and 3.010 nmol and 3.038 nmol and 3.261 nmol and 3.272 nmol
A232E VCP
  ATPase activity, nmol Pi / nmol VCP / s: 0.830 nmol Pi / nmol VCP / s and 0.637 nmol Pi / nmol VCP / s and 0.764 nmol Pi / nmol VCP / s
R155H VCP
  ATPase activity, nmol Pi / nmol VCP / s: 0.759 nmol Pi / nmol VCP / s and 0.647 nmol Pi / nmol VCP / s and 0.706 nmol Pi / nmol VCP / s
R159H VCP
  ATPase activity, nmol Pi / nmol VCP / s: 0.812 nmol Pi / nmol VCP / s and 0.873 nmol Pi / nmol VCP / s and 0.726 nmol Pi / nmol VCP / s
